From US10155021B2, “Antimicrobial 4-oxoquinolizines” (Emergent Product Development Gaithersburg Inc., priority 2011, dated 2018) come the findings set out here.

Each structure is given as a SMILES string. Values after ≈ are worked out from the molar mass of the structure shown. Read-outs that look alike come from different tables or passages of the source.

Test [1] concerns B. thailandensis E264. The test is described as follows: microbe, parasite or virus in culture. The note with it: Burkholderia thailandensis, E264, read-out: MIC B. thailandensis E264. Format: cell-based, Burkholderia thailandensis.
Test [2] deals with P. aeruginosa ATCC 27853. The test is described as follows: MIC, selected panel of Gram-positive and Gram-negative strains (Example 5). Format: cell-based.
In test [3] the test system is A. baumannii ATCC 19606. The test is described as above. It is filed as cell-based, Acinetobacter baumannii. To be noted: Acinetobacter baumannii, ATCC19606, read-out: MIC A. baumannii ATCC 19606.
Test [4] relates to S. aureus ATCC 25923. The test is described as above. To be noted: Staphylococcus aureus, ATCC25923, read-out: MIC S. aureus ATCC 25923. It is filed as cell-based.
Test [5] relates to S. aureus ATCC 43300 (MRSA, FQ-S). The test is described as above. Format: cell-based, Staphylococcus aureus.
For test [6], the system named is S. aureus BAA-1556 (USA300-Type MRSA, FQ-R). The test is described as above. Format: cell-based, Staphylococcus aureus.
Test [7] relates to E. coli ATCC 25922. Described as above. It is filed as cell-based, Escherichia coli.
[8] abbreviates: Pseudomonas aeruginosa, ATCC27853, read-out: MIC P. aeruginosa ATCC 27853.
The mark [9] stands for this setting: Staphylococcus aureus, read-out: MIC S. aureus ATCC 43300 (MRSA, FQ-S).
Where [10] appears, read: Staphylococcus aureus, read-out: MIC S. aureus BAA-1556 (USA300-Type MRSA, FQ-R).
The mark [11] stands for this setting: Escherichia coli, ATCC25922, read-out: MIC E. coli ATCC 25922.
Setting [12] is: Staphylococcus aureus; read-out: MIC S. aureus BAA-1556 (USA300-Type MRSA, FQ-R).

Turning to `Cc1c(-c2ccc3c(c2)CCN3)ccn2c(=O)c(C(=O)[O-])cc(C3CC3)c12.[K+]` [Compound 77K salt, potassium 8-(indolin-5-yl)-1-cyclopropyl-9-methyl-4-oxo-4H-quinolizine-3-carboxylate], the MIC was found to be 1 µg/mL in test [1]; 4 µg/mL in test [2] (setting [8]); 0.25 µg/mL in test [3]; 0.016 µg/mL in test [4]; 0.016 µg/mL in test [5] (setting [9]); 0.5 µg/mL in test [6] (setting [10]).
Turning to `Cc1c(-c2ccc3c(cnn3C)c2)ccn2c(=O)c(C(=O)[O-])cc(C3CC3)c12.[K+]` [Compound 81K salt, potassium 8-(1-methyl-1H-indazol-5-yl)-1-cyclopropyl-9-methyl-4-oxo-4H-quinolizine-3-carboxylate], the MIC in test [1] was 0.25 µg/mL; in test [7] (setting [11]) it was 0.064 µg/mL; in test [2] (setting [8]), 2 µg/mL; in test [4], at most 0.004 µg/mL; in test [5] (setting [9]), at most 0.004 µg/mL; in test [6] (setting [10]) it was 0.064 µg/mL.
Take `O=C(O)c1cn(C2CC2)c2cc(N3CCNCC3)c(F)cc2c1=O` [Ciprofloxacin, reference compound]: the MIC in test [6] (setting [12]) was above 8 µg/mL.
For `CNc1ccc(-c2ccn3c(=O)c(C(=O)[O-])cc(C4CC4)c3c2C)cc1C.[K+]` [Compound 69K salt, potassium 8-(3-methyl-4-(methylamino)phenyl)-1-cyclopropyl-9-methyl-4-oxo-4H-quinolizine-3-carboxylate], the MIC in test [1] was 1 µg/mL; in test [2] (setting [8]), 4 µg/mL; in test [3] it was 0.25 to 0.5 µg/mL; in test [4], at most 0.004 µg/mL; in test [5] (setting [9]), at most 0.004 µg/mL; in test [6] (setting [10]), 0.25 µg/mL.
With `C[C@H]1c2cccc(O)c2C(=O)C2=C(O)[C@]3(O)C(=O)C(C(N)=O)=C(O)[C@@H](N(C)C)[C@@H]3[C@@H](O)[C@@H]21` [Doxycycline, reference compound], the MIC in test [1] is 2 µg/mL (≈ 4.5 µM); in test [7] (Escherichia coli, ATCC25922; read-out: MIC E. coli ATCC 25922) it was 1 µg/mL (≈ 2.25 µM); in test [2] (Pseudomonas aeruginosa, ATCC27853; read-out: MIC P. aeruginosa ATCC 27853), above 8 µg/mL; in test [5] (Staphylococcus aureus; read-out: MIC S. aureus ATCC 43300 (MRSA, FQ-S)), 0.25 µg/mL (≈ 0.563 µM); in test [6] (setting [12]), 4 µg/mL (≈ 9 µM).
As to `CC(=O)NCc1ccc(-c2ccn3c(=O)c(C(=O)[O-])cc(C4CC4)c3c2C)cc1.[K+]` [Compound 64K salt, potassium 8-(4-(Acetamidomethyl)phenyl)-1-cyclopropyl-9-methyl-4-oxo-4H-quinolizine-3-carboxylate], the MIC in test [1] worked out at 2 µg/mL; in test [2] (setting [8]), 8 µg/mL; in test [3], 0.5 µg/mL; in test [4], 0.032 µg/mL; in test [5] (setting [9]), 0.032 µg/mL; in test [6] (setting [10]), 0.5 µg/mL.
With `Cc1c(-c2ccc(CN)s2)ccn2c(=O)c(C(=O)[O-])cc(C3CC3)c12.[K+]` [Compound 13K salt, potassium 8-(5-(aminomethyl)thiophen-2-yl)-1-cyclopropyl-9-methyl-4-oxo-4H-quinolizine-3-carboxylate], the MIC was determined as 0.5 µg/mL in test [1]; 0.016 µg/mL in test [7] (setting [11]); 1 µg/mL in test [2] (setting [8]); 0.016 µg/mL in test [4]; 0.016 µg/mL in test [5] (setting [9]); 0.5 µg/mL in test [6] (setting [10]).
Turning to `Cc1c(-c2ccc3sc(N)nc3c2)ccn2c(=O)c(C(=O)[O-])cc(C3CC3)c12.[K+]` [Compound 73K salt, potassium 8-(2-aminobenzo[d]thiazol-5-yl)-1-cyclopropyl-9-methyl-4-oxo-4H-quinolizine-3-carboxylate], the MIC was 0.5 µg/mL in test [1]; 0.032 µg/mL in test [7] (setting [11]); 2 µg/mL in test [2] (setting [8]); at most 0.004 µg/mL in test [4]; at most 0.004 µg/mL in test [5] (setting [9]); 0.064 µg/mL in test [6] (setting [10]).
As for `Cc1c(-c2ccc3[nH]nc(C4CC4)c3c2)ccn2c(=O)c(C(=O)[O-])cc(C3CC3)c12.[K+]` [Compound 71K salt, potassium 8-(3-cyclopropyl-1H-indazol-5-yl)-1-cyclopropyl-9-methyl-4-oxo-4H-quinolizine-3-carboxylate], the MIC in test [1] was 2 µg/mL; in test [2] (setting [8]), above 8 µg/mL; in test [3] it was 0.5 µg/mL; in test [4], at most 0.004 µg/mL; in test [5] (setting [9]) it was at most 0.004 µg/mL.
On to `COc1c(-c2ccc3[nH]ncc3c2)ccn2c(=O)c(C(=O)[O-])cc(C3CC3)c12.[K+]` [Compound 90K salt, potassium 8-(1H-indazol-5-yl)-1-cyclopropyl-9-methoxy-4-oxo-4H-quinolizine-3-carboxylate], for which the MIC in test [1] was 2 µg/mL; in test [2] (setting [8]), 4 µg/mL; in test [3], 0.5 µg/mL; in test [4], 0.008 µg/mL; in test [5] (setting [9]), 0.008 µg/mL; in test [6] (setting [10]), 0.25 µg/mL.
Regarding `Cc1c(-c2ccc(O)c(F)c2)ccn2c(=O)c(C(=O)[O-])cc(C3CC3)c12.[K+]` [Compound 70K salt, potassium 8-(3-fluoro-4-hydroxyphenyl)-1-cyclopropyl-9-methyl-4-oxo-4H-quinolizine-3-carboxylate], the MIC in test [1] is 0.25 µg/mL; in test [7] (setting [11]), 0.032 µg/mL; in test [2] (setting [8]), 1 µg/mL; in test [4], at most 0.004 µg/mL; in test [5] (setting [9]), at most 0.004 µg/mL; in test [6] (setting [10]), 0.064 µg/mL.
On to `Cc1c(-c2ccc(N3CCNCC3)nc2)ccn2c(=O)c(C(=O)[O-])cc(C3CC3)c12.[K+]` [Compound 84K salt, potassium 8-(6-(piperazin-1-yl)pyridin-3-yl)-1-cyclopropyl-9-methyl-4-oxo-4H-quinolizine-3-carboxylate], for which the MIC in test [1] is 8 µg/mL; in test [7] (setting [11]) it was 0.125 to 0.25 µg/mL; in test [2] (setting [8]), 8 µg/mL; in test [3], 2 µg/mL; in test [6] (setting [10]) it was 2 µg/mL.
In the case of `COc1c(-c2ccc(N)nc2)ccn2c(=O)c(C(=O)[O-])cc(C3CC3)c12.[K+]` [Compound 89K salt, potassium 8-(6-amino-pyridin-3-yl)-1-cyclopropyl-9-methoxy-4-oxo-4H-quinolizine-3-carboxylate], the MIC in test [1] amounted to 4 µg/mL; in test [2] (setting [8]) it was 8 µg/mL; in test [3], 0.5 µg/mL; in test [4], 0.032 µg/mL; in test [5] (setting [9]), 0.032 µg/mL; in test [6] (setting [10]) it was 2 µg/mL.
Take `Cc1cn2c(=O)c(C(=O)[O-])cc(C3CC3)c2c(C)c1-c1ccc2[nH]ncc2c1.[K+]` [Compound 88K salt, potassium 8-(1H-indazol-5-yl)-1-cyclopropyl-7,9-dimethyl-4-oxo-4H-quinolizine-3-carboxylate]: the MIC was found to be 1 µg/mL in test [1]; 4 µg/mL in test [2] (setting [8]); 0.5 µg/mL in test [3]; 0.008 µg/mL in test [4]; 0.008 µg/mL in test [5] (setting [9]); 0.5 µg/mL in test [6] (setting [10]).
Turning to `CNc1ccc(-c2ccn3c(=O)c(C(=O)[O-])cc(C4CC4)c3c2C)cn1.[K+]` [Compound 78K salt, potassium 8-(6-(methylamino)pyridin-3-yl)-1-cyclopropyl-9-methyl-4-oxo-4H-quinolizine-3-carboxylate], the MIC is 0.5 µg/mL in test [1]; 0.064 to 0.125 µg/mL in test [7] (setting [11]); 2 µg/mL in test [2] (setting [8]); 0.008 µg/mL in test [4]; 0.008 µg/mL in test [5] (setting [9]).
On to `Cc1c(-c2ccc(O)cc2)c(F)cn2c(=O)c(C(=O)[O-])cc(C3CC3)c12.[K+]` [Compound 61K salt, potassium 8-(4-hydroxyphenyl)-1-cyclopropyl-7-fluoro-9-methyl-4-oxo-4H-quinolizine-3-carboxylate], for which the MIC stood at 0.5 µg/mL in test [1], 0.032 µg/mL in test [7] (setting [11]), 2 µg/mL in test [2] (setting [8]) and 0.064 µg/mL in test [6] (setting [10]).
For the compound `Cc1cn2c(=O)c(C(=O)[O-])cc(C3CC3)c2c(C)c1-c1ccc(N)nc1.[K+]` [Compound 87K salt, potassium 8-(6-amino-pyridin-3-yl)-1-cyclopropyl-7,9-dimethyl-4-oxo-4H-quinolizine-3-carboxylate], the MIC was 4 µg/mL in test [1]; 8 µg/mL in test [2] (setting [8]); 0.25 µg/mL in test [3]; 0.064 µg/mL in test [4]; 0.064 µg/mL in test [5] (setting [9]); 8 µg/mL in test [6] (setting [10]).
On to `Cc1c(-c2cccc(O)c2)ccn2c(=O)c(C(=O)[O-])cc(C3CC3)c12.[K+]` [Compound 56K salt, potassium 1-cyclopropyl-8-(3-hydroxyphenyl)-9-methyl-4-oxo-4H-quinolizine-3-carboxylate], for which the MIC in test [1] is 0.25 µg/mL; in test [7] (setting [11]), 0.032 µg/mL; in test [2] (setting [8]), 2 µg/mL; in test [4], 0.008 µg/mL; in test [5] (setting [9]), 0.008 µg/mL.
For `COc1cc(-c2ccn3c(=O)c(C(=O)[O-])cc(C4CC4)c3c2C)ccc1O.[K+]` [Compound 66K salt, potassium 8-(4-hydroxy-3-methoxyphenyl)-1-cyclopropyl-9-methyl-4-oxo-4H-quinolizine-3-carboxylate], the MIC in test [1] was determined as 1 µg/mL; in test [2] (setting [8]), 4 µg/mL; in test [3], 0.5 µg/mL; in test [4] it was 0.008 µg/mL; in test [5] (setting [9]), 0.008 µg/mL; in test [6] (setting [10]), 0.25 µg/mL.
